Consider one compound from patent publication US20260248869A1, “SILICONE GEL COMPOSITION OF WALNUT EXTRACT” (priority 2022, published 2026).

Each structure is given as a SMILES string.

The data set can be described thus: Confocal optical microscopy of Juglone penetration depth in human skin. In kind it is in vitro ADME. The conditions noted are these: epidermal region; signal disappeared at greater depths. An excerpt:
The penetration in human skin was also studied by confocal microscopy, using the fluorescence of the Juglone molecule exciting it with light of 488 nm and observing its fluorescence in a window from 510 to 702 nm. For this penetration study, a Leica microscope, model SPE Confocal Microscope was used, with a 10×lens. The location of the Juglone molecules in depth was established with this instrument (in perpendicular direction to the skin surface). The accumulation of Juglone at different depth levels causes the appearance of areas with different fluorescence intensity and allows to observe directly where the molecule is retained. It must be noted that white Caucasian skins were chosen to prevent interferences of basal fluorescence and thus clearly observe the fluorescence of the Juglone molecule.
The transdermal permeation study was performed according to the “Guidance document for the conduct of skin absorption studies”. OECD series on testing assessment. Number 28. ENV/JM/MONO (2004) 2.5 Mar. 2004. Using Franz type cells, of 1.80 cm in diameter, and a surface of 2.54 cm^2. The permeation membrane used was human skin of the abdominal area (0.400 mm thick) from repair surgery and previously treated. This thickness covers the epidermis and dermis above the vascular plexus. […]

On to `O=C1C=CC(=O)c2c(O)cccc21` [Juglone, 5-hydroxy-1,4-naphthalenedione], for which the “Depth at which the specific fluorescence of Juglone is maintained” value was “less than 120 μm”.
